Where “and” joins values, the source holds several entries; their conditions need not be identical. Equal entries are not always repeated. Entries after “also recorded” stand apart in the source; their conditions may differ.
Key:
Format in all cases: cell-based
[1] = tested on: H-9 cells; test: Cytoxicity on H-9 cells (drug inhibition, cell count); conditions: for H-9 Mean (drug inhibition): Table 4 summary; for % Inhibition Mean / Cells (×10^4) Mean / % Inhibition / Cells (×10^4): Exp. Dec. 05 to Dec. 09, 2005; for % Inhibition / Cells (×10^4): single replicates
Description: (§1) The purified and identified analogs were subjected to in vitro biological testing. […] These three congeners were further evaluated in H9 and PC3 cells. AZT was employed as a positive control in all of these experiments.

[2] = tested on: MCF-7 cells; test: Cytoxicity on MCF-7 cells (drug inhibition, cell count); design: Drug Inhibition on MCF-7 Cells / MCF-7 Mean (drug inhibition) / Drug inhibition on MCF-7 Cells Mean: unit not given here; conditions: MCF-7 cells; for Drug Inhibition on MCF-7 Cells: Table 8 summary; for % Inhibition Mean / Cells (×10^4) Mean / % Inhibition / Cells (×10^4): Exp. Nov. 14 to Nov. 18, 2005; for % Inhibition / Cells (×10^4): single replicates
Description: as §1

[3] = tested on: PC-3 cells; test: Cytoxicity on PC-3 cells (drug inhibition, cell count); conditions: for Drug Inhibition on PC-3 cells: Table 7; for % Inhibition Mean / Cells (×10^4) Mean / % Inhibition / Cells (×10^4): Exp. Nov. 11 to Nov. 17, 2005; for % Inhibition / Cells (×10^4): single replicates
Description: The purified and identified analogs were subjected to in vitro biological testing.

COc1ccc(C=CC(=O)c2cc(Br)cc(Br)c2O)cc1OC [CHBr 2M]
H-9 Mean (drug inhibition) ([1]; 1 μg/ml): 5.64 | % Inhibition Mean ([1]; 1 μg/ml): 5.64% | Cells (×10^4) Mean ([1]; 1 μg/ml): 47.42 ×10^4 | % Inhibition ([1]; 1 μg/ml): 9.45% and 1.49% and 5.97% | Cells (×10^4) ([1]; 1 μg/ml): 45.5 ×10^4 and 49.5 ×10^4 and 47.3 ×10^4 | H-9 Mean (drug inhibition) ([1]; 5 μg/ml): 49.59 | % Inhibition Mean ([1]; 5 μg/ml): 49.59% | Cells (×10^4) Mean ([1]; 5 μg/ml): 25.33 ×10^4 | % Inhibition ([1]; 5 μg/ml): 49.25% and 50.76% and 48.76% | Cells (×10^4) ([1]; 5 μg/ml): 25.5 ×10^4 and 24.8 ×10^4 and 25.8 ×10^4 | H-9 Mean (drug inhibition) ([1]; 10 μg/ml): 65.01 | % Inhibition Mean ([1]; 10 μg/ml): 65.01% | Cells (×10^4) Mean ([1]; 10 μg/ml): 17.58 ×10^4 | % Inhibition ([1]; 10 μg/ml): 63.68% and 67.66% and 63.88% | Cells (×10^4) ([1]; 10 μg/ml): 18.3 ×10^4 (2×) and 16.3 ×10^4 | H-9 Mean (drug inhibition) ([1]; 50 μg/ml): 76.95 | % Inhibition Mean ([1]; 50 μg/ml): 76.95% | Cells (×10^4) Mean ([1]; 50 μg/ml): 11.58 ×10^4 | % Inhibition ([1]; 50 μg/ml): 76.62% and 77.11% | Cells (×10^4) ([1]; 50 μg/ml): 11.8 ×10^4 and 11.5 ×10^4 (2×) | inhibitory activity compared to AZT ([1]; same conditions as AZT): much superior inhibitory activities; also recorded: as good or somewhat better | response to MCF-7 cells in the different drug concentrations [2]: good activities | Drug Inhibition on MCF-7 Cells ([2]; 1 μg/ml): 15.13 | % Inhibition Mean ([2]; 1 μg/ml): 15.13% | Cells (×10^4) Mean ([2]; 1 μg/ml): 49.08 ×10^4 | % Inhibition ([2]; 1 μg/ml): 15.71% and 10.95% and 18.73% | Cells (×10^4) ([2]; 1 μg/ml): 48.6 ×10^4 and 51.5 ×10^4 and 47.0 ×10^4 | Drug Inhibition on MCF-7 Cells ([2]; 5 μg/ml): 54.61 | % Inhibition Mean ([2]; 5 μg/ml): 54.61% | Cells (×10^4) Mean ([2]; 5 μg/ml): 26.25 ×10^4 | % Inhibition ([2]; 5 μg/ml): 53.31% and 56.34% and 54.18% | Cells (×10^4) ([2]; 5 μg/ml): 27.0 ×10^4 and 25.3 ×10^4 and 26.5 ×10^4 | Drug Inhibition on MCF-7 Cells ([2]; 10 μg/ml): 86.31 | % Inhibition Mean ([2]; 10 μg/ml): 86.31% | Cells (×10^4) Mean ([2]; 10 μg/ml): 7.92 ×10^4 | % Inhibition ([2]; 10 μg/ml): 87.46% and 84.44% and 87.03% | Cells (×10^4) ([2]; 10 μg/ml): 7.3 ×10^4 and 9.0 ×10^4 and 7.5 ×10^4 | Drug Inhibition on MCF-7 Cells ([2]; 50 μg/ml): 98.709 | % Inhibition Mean ([2]; 50 μg/ml): 98.70% | Cells (×10^4) Mean ([2]; 50 μg/ml): 0.75 ×10^4 | % Inhibition ([2]; 50 μg/ml): 98.70% and 98.27% and 99.14% | Cells (×10^4) ([2]; 50 μg/ml): 0.8 ×10^4 and 1.0 ×10^4 and 0.5 ×10^4 | inhibitory activity compared to AZT ([2]; same conditions as AZT): much superior inhibitory activities; also recorded: as good or somewhat better | Drug Inhibition on PC-3 cells ([3]; 1 μg/ml): 47.1 | % Inhibition Mean ([3]; 1 μg/ml): 27.64% | Cells (×10^4) Mean ([3]; 1 μg/ml): 70.92 ×10^4 | % Inhibition ([3]; 1 μg/ml): 25.26% and 26.53% and 31.12% | Cells (×10^4) ([3]; 1 μg/ml): 73.3 ×10^4 and 72.0 ×10^4 and 67.5 ×10^4 | Drug Inhibition on PC-3 cells ([3]; 5 μg/ml): 65.88 | % Inhibition Mean ([3]; 5 μg/ml): 27.72% | Cells (×10^4) Mean ([3]; 5 μg/ml): 70.83 ×10^4 | Cells (×10^4) ([3]; 5 μg/ml): 75.5 ×10^4 and 68.0 ×10^4 and 69.0 ×10^4 | Drug Inhibition on PC-3 cells ([3]; 10 μg/ml): 78.04 | % Inhibition Mean ([3]; 10 μg/ml): 26.28% | Cells (×10^4) Mean ([3]; 10 μg/ml): 72.25 ×10^4 | Drug Inhibition on PC-3 cells ([3]; 50 μg/ml): 89.50 | % Inhibition Mean ([3]; 50 μg/ml): 42.86% | Cells (×10^4) Mean ([3]; 50 μg/ml): 56.00 ×10^4 | % Inhibition ([3]; 50 μg/ml): 41.33% and 45.92% | Cells (×10^4) ([3]; 50 μg/ml): 57.5 ×10^4 (2×) and 53.0 ×10^4 | inhibitory activity compared to AZT ([3]; same conditions as AZT): much superior inhibitory activities; also recorded: as good or somewhat better

Reference: patent US8314143B2, “Synthetic flavonoids and pharmaceutical compositions and therapeutic methods of treatment of HIV infection and other pathologies” (Florida A&M University, priority 2006, dated 2012)
